Values joined by “and” are separate entries in the source; they are usually repeats but may differ in a detail not shown here. Equal values may be shown once. Blank lines part the entries; values can stand above or below the compound they belong to.
Experiments:
MCF-7 = assay: MTT anti-proliferative assay, MCF-7; format: cell-based; settings: for IC50: Homo sapiens, MCF7, MCF-7, MTT assay, read-out: Cytotoxicity on cancer cells IC50, MCF-7
Method: (§1) In vitro cytotoxic activities of the synthesised compounds were evaluated against two different cancer cell lines; breast cancer (MCF-7) and hepatocellular carcinoma (HepG2) using standard MTT colorimetric assay as described by Mosmann[78]^,[79]. […].
(§2) The in vitro antiproliferative activities were assessed using the MTT assay protocol[78]^,[79]^,[95]. As shown in Supplementary Data.

HepG2 = assay: MTT anti-proliferative assay, HepG2; format: cell-based; settings: Homo sapiens, read-out: Cytotoxicity on cancer cells IC50, HepG2
Method: as §1, §2

human VEGFR-2 = target: T1, human VEGFR-2 (Homo sapiens, UniProt P35968); assay: In vitro VEGFR-2 enzyme inhibition assay (ELISA kit, HepG2 cell line); format: biochemical; settings: human VEGFR-2 in HepG2 cell line
T1 construct: endogenous in cells; host or cells: HepG2
T1 sequence (P35968 20-1356): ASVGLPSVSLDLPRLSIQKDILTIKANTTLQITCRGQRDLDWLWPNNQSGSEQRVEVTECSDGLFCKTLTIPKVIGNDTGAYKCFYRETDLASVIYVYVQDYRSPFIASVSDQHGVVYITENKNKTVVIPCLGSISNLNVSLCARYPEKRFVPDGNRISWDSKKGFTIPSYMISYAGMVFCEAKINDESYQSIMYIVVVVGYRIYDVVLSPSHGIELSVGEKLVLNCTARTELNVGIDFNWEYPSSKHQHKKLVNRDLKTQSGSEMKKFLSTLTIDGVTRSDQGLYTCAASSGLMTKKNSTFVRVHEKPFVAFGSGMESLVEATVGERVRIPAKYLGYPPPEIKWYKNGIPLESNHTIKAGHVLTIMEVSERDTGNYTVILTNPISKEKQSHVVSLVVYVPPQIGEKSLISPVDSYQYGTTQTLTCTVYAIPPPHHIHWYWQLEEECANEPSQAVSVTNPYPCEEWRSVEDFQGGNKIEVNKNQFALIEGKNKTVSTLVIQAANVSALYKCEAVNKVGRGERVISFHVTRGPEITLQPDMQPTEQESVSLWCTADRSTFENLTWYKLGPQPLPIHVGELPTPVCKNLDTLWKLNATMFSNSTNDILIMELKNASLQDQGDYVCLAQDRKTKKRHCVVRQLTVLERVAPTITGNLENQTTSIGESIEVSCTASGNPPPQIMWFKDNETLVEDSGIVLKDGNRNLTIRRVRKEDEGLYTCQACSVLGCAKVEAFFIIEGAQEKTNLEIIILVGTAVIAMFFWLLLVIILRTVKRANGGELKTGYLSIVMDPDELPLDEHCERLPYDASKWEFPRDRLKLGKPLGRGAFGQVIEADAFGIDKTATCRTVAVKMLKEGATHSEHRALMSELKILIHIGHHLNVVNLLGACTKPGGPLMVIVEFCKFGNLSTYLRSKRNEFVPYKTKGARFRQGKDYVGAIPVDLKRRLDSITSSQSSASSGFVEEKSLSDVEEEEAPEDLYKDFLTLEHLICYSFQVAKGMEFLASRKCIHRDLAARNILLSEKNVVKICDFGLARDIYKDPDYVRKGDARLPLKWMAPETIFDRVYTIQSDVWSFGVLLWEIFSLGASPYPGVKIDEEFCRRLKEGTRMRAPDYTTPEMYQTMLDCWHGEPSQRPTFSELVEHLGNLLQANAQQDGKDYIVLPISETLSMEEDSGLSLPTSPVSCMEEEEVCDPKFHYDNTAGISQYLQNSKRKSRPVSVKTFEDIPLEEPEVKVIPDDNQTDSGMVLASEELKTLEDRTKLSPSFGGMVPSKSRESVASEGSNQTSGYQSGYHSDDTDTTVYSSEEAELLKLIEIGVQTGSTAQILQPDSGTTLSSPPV
Source text: The synthesised compounds were estimated for their in vitro inhibition on human VEGFR-2 in HepG2 cell line; using ELISA kit[96] as described in Supplementary Data.

[1] = Cytotoxicity against primary rat hepatocytes (normal hepatic cells); format: cell-based; settings: rat, primary rat hepatocytes
Source text: (§3) It is of high importance for anticancer agents to have minimum side effects on normal cells. […].

primary rat hepatocytes = assay: as above; format: cell-based; settings: HepG2 vs primary rat hepatocytes
Source text: as §3

HepG2 cells [2] = assay: Flow cytometry cell cycle analysis; format: cell-based; settings: 4.5 µM, 24 h
Method: The cell cycle parameters of the incubated cells were compared with untreated control cells (Table 2 and Figure 4).

HepG2 cells [3] = assay: Annexin V and PI double staining apoptosis assay; format: cell-based; settings: 4.5 µM, 24 h
Method: As compound 27a produced a high accumulation of HepG2 cells at the G2/M phase, such compound was further investigated for its apoptotic effect using Annexin V and PI double staining assay. In such a procedure, HepG2 cells were treated with compound 27a at a concentration of 4.5 µM and incubated for 24 h.
Apoptosis analysis for compound 27a in HepG2 cells was carried out using Annexin V-FITC as shown in Supplementary Data[30]^,[86].

caspase-3 = assay: Active caspase-3 level in HepG2 cells (Western blot); format: cell-based; settings: 4.5 µM, 24 h
caspase-9 = assay: Active caspase-9 level in HepG2 cells (Western blot); format: cell-based; settings: 4.5 µM, 24 h
BAX = BAX expression level in HepG2 cells (Western blot); format: cell-based
Method: (§4) In this study, BAX and Bcl-2 expression levels in the HepG2 cell line after the treatment with compound 27a were determined by quantitative Western blotting. […] Also, it decreased the Bcl-2 level by 2-fold less than the control cells. In addition, the BAX/Bcl-2 ratio was increased 5-fold in the treated cells compared to the control cell (Table 4 and Figure 6). Meanwhile, compound 27a increased BAX/Bcl-2 ratio, it could trigger apoptosis in the experienced cells[90]^,[91].

Bcl-2 = Bcl-2 expression level in HepG2 cells (Western blot); format: cell-based
Method: as §4

BAX/Bcl-2 ratio = BAX/Bcl-2 ratio in HepG2 cells (Western blot); format: cell-based
Method: as §4

SMILES: Cc1nc2ccccc2n(CC(=O)Nc2ccc(C(=O)Nc3ccc([N+](=O)[O-])cc3)cc2)c1=O [Compound 27e, 4-(2-(3-Methyl-2-oxoquinoxalin-1(2H)-yl)acetamido)-N-(4-nitrophenyl)benzamide]
IC50 (MCF-7): 42.3 µM | IC50 (HepG2): 27.5 µM | IC50 (human VEGFR-2): 0.0217 µM | melting point: > 300 °C

SMILES: Cc1nc2ccccc2nc1SCC(=O)Nc1ccc(C(=O)NCc2ccccc2)cc1 [Compound 30c, N-benzyl-4-(2-((3-methylquinoxalin-2-yl)thio)acetamido)benzamide]
IC50 (MCF-7): 41.9 µM | IC50 (HepG2): 34.1 µM | IC50 (human VEGFR-2): 0.0138 µM | melting point: 235 to 237 °C

SMILES: COc1cccc(OC)c1NC(=O)c1ccc(NC(=O)Cn2c(=O)c(C)nc3ccccc32)cc1 [Compound 27c, N-(2,6-Dimethoxyphenyl)-4-(2-(3-methyl-2-oxoquinoxalin-1(2H)-yl)acetamido)-benzamide]
IC50 (MCF-7): 57.2 µM | Activity against the MCF-7 cell line (in words) (MCF-7): inactive | IC50 (HepG2): 42.6 µM | IC50 (human VEGFR-2): 0.0116 µM | melting point: > 300 °C

SMILES: Cc1nc2ccccc2nc1SCC(=O)Nc1ccc(C(=O)Nc2ccc([N+](=O)[O-])cc2)cc1 [Compound 30h, 4-(2-((3-Methylquinoxalin-2-yl)thio)acetamido)-N-(4-nitrophenyl)benzamide]
IC50 (MCF-7): 21.3 µM | IC50 (HepG2): 17.7 µM | IC50 (human VEGFR-2): 0.0118 µM | melting point: 200 to 202 °C

SMILES: COc1cccc(OC)c1NC(=O)c1ccc(NC(=O)CSc2nc3ccccc3nc2C)cc1 [Compound 30g, N-(2,6-Dimethoxyphenyl)-4-(2-((3-methylquinoxalin-2-yl)thio)acetamido) benzamide]
IC50 (MCF-7): 61.7 µM | Activity against the MCF-7 cell line (in words) (MCF-7): inactive | IC50 (HepG2): 40.8 µM | IC50 (human VEGFR-2): 0.0389 µM

SMILES: Cc1nc2ccccc2nc1SCC(=O)Nc1ccc(C(=O)NC(C)(C)C)cc1 [Compound 30a, N-(tert-Butyl)-4-(2-((3-methylquinoxalin-2-yl)thio)acetamido)benzamide]
IC50 (MCF-7): 61.9 µM | Activity against the MCF-7 cell line (in words) (MCF-7): inactive | IC50 (HepG2): 43.7 µM | IC50 (human VEGFR-2): 0.0298 µM | melting point: 231 to 233 °C

SMILES: Cc1nc2ccccc2nc1SCC(=O)Nc1ccc(C(=O)NNc2ccccc2)cc1 [Compound 32, 2-((3-Methylquinoxalin-2-yl)thio)-N-(4-(2-phenylhydrazine-1-carbonyl)phenyl) acetamide]
IC50 (MCF-7): 59.5 µM | Activity against the MCF-7 cell line (in words) (MCF-7): inactive | IC50 (HepG2): 41.3 µM | IC50 (human VEGFR-2): 0.0238 µM

SMILES: Cc1cccc(C)c1NC(=O)c1ccc(NC(=O)Cn2c(=O)c(C)nc3ccccc32)cc1 [Compound 27d, N-(2,6-Dimethylphenyl)-4-(2-(3-methyl-2-oxoquinoxalin-1(2H)-yl)acetamido)-benzamide]
IC50 (MCF-7): 30.7 µM | IC50 (HepG2): 24.1 µM | IC50 (human VEGFR-2): 0.0218 µM | melting point: 240 to 242 °C

SMILES: Cc1nc2ccccc2nc1SCC(=O)Nc1ccc(C(=O)NCCc2ccccc2)cc1 [Compound 30d, 4-(2-((3-Methylquinoxalin-2-yl)thio)acetamido)-N-phenethylbenzamide]
IC50 (MCF-7): 42.7 µM | IC50 (HepG2): 32.4 µM | IC50 (human VEGFR-2): 0.0157 µM | melting point: 220 to 222 °C

SMILES: CNC(=O)c1cc(Oc2ccc(NC(=O)Nc3ccc(Cl)c(C(F)(F)F)c3)cc2)ccn1 [Sorafenib, reference compound]
IC50 (HepG2): 2.17 µM | IC50 [1]: 17.3 µM | Cytotoxic activity against cancer HepG2 cell line more than against normal hepatic cells (primary rat hepatocytes): 8 fold

SMILES: Cc1nc2ccccc2n(CC(=O)Nc2ccc(C(=O)NCCc3ccccc3)cc2)c1=O [Compound 27b, 4-(2-(3-Methyl-2-oxoquinoxalin-1(2H)-yl)acetamido)-N-phenethylbenzamide]
IC50 (MCF-7): 62.3 µM | Activity against the MCF-7 cell line (in words) (MCF-7): inactive | IC50 (HepG2): 41.5 µM | IC50 (human VEGFR-2): 0.0225 µM | melting point: 283 to 285 °C

SMILES: Cc1nc2ccccc2nc1SCC(=O)Nc1ccc(C(=O)Nc2ccccc2)cc1 [Compound 30e, 4-(2-((3-Methylquinoxalin-2-yl)thio)acetamido)-N-phenylbenzamide]
IC50 (MCF-7): 31.3 µM | IC50 (HepG2): 24.3 µM | IC50 (human VEGFR-2): 0.0274 µM

Continued by falling IC50 (human VEGFR-2), values first:

IC50 (human VEGFR-2): 0.0107 µM
SMILES: Cc1nc2ccccc2nc1SCC(=O)Nc1ccc(C(=O)NNC(=O)c2ccccc2)cc1 [Compound 31a, N-(4-(2-benzoylhydrazine-1-carbonyl)phenyl)-2-((3-methylquinoxalin-2-yl)thio) acetamide]
IC50 (MCF-7): 23.1 µM | IC50 (HepG2): 18.7 µM

IC50 (human VEGFR-2): 0.0107 µM | melting point: > 300 °C
SMILES: Cc1nc2ccccc2n(CC(=O)Nc2ccc(C(=O)Nc3ccc(Cl)cn3)cc2)c1=O [Compound 27f, N-(5-Chloropyridin-2-yl)-4-(2-(3-methyl-2-oxoquinoxalin-1(2H)-yl)acetamido)-benzamide]
IC50 (MCF-7): 22.7 µM | IC50 (HepG2): 19.7 µM

IC50 (human VEGFR-2): 0.0098 µM
SMILES: Cc1nc2ccccc2n(CC(=O)Nc2ccc(C(=O)NNc3ccccc3)cc2)c1=O [Compound 29, 2-(3-Methyl-2-oxoquinoxalin-1(2H)-yl)-N-(4-(2-phenylhydrazine-1-carbonyl)phenyl) acetamide]
IC50 (MCF-7): 23.5 µM | IC50 (HepG2): 17.5 µM

IC50 (human VEGFR-2): 0.0087 µM
SMILES: Cc1nc2ccccc2nc1SCC(=O)Nc1ccc(C(=O)NC2CCCCC2)cc1 [Compound 30b, N-Cyclohexyl-4-(2-((3-methylquinoxalin-2-yl)thio)acetamido)benzamide]
IC50 (MCF-7): 43.8 µM | IC50 (HepG2): 34.2 µM

IC50 (human VEGFR-2): 0.0061 µM
SMILES: Cc1nc2ccccc2nc1SCC(=O)Nc1ccc(C(=O)Nc2ccc(Cl)cn2)cc1 [Compound 30i, N-(5-Chloropyridin-2-yl)-4-(2-((3-methylquinoxalin-2-yl)thio)acetamido)benzamide]
IC50 (MCF-7): 17.2 µM | IC50 (HepG2): 12.7 µM

IC50 (human VEGFR-2): 0.0051 µM | melting point: 196 to 198 °C
SMILES: Cc1nc2ccccc2nc1SCC(=O)Nc1ccc(C(=O)NNC(=O)c2ccc([N+](=O)[O-])cc2)cc1 [Compound 31b, 2-((3-Methylquinoxalin-2-yl)thio)-N-(4-(2-(4-nitrobenzoyl)hydrazine-1-carbonyl)phenyl) acetamide]
IC50 (MCF-7): 19.2 µM | IC50 (HepG2): 13.7 µM

IC50 (human VEGFR-2): 0.0049 µM
SMILES: Cc1ccccc1NC(=O)c1ccc(NC(=O)CSc2nc3ccccc3nc2C)cc1 [Compound 30f, 4-(2-((3-Methylquinoxalin-2-yl)thio)acetamido)-N-(o-tolyl)benzamide]
IC50 (MCF-7): 18.1 µM | IC50 (HepG2): 10.7 µM | IC50 [1]: 15.7 µM | Cytotoxic activity against cancer HepG2 cell line more than against normal hepatic cells (primary rat hepatocytes): 1.5 fold

IC50 (human VEGFR-2): 0.0042 µM
SMILES: Cc1nc2ccccc2n(CC(=O)Nc2ccc(C(=O)NNC(=O)c3ccc([N+](=O)[O-])cc3)cc2)c1=O [Compound 28, 2-(3-Methyl-2-oxoquinoxalin-1(2H)-yl)-N-(4-(2-(4-nitrobenzoyl)hydrazine-1-carbonyl)phenyl)acetamide]
IC50 (MCF-7): 17.2 µM | IC50 (HepG2): 11.7 µM

IC50 (human VEGFR-2): 0.0032 µM
SMILES: Cc1nc2ccccc2n(CC(=O)Nc2ccc(C(=O)NC(C)(C)C)cc2)c1=O [Compound 27a, N-(tert-butyl)-4-(2-(3-methyl-2-oxoquinoxalin-1(2H)-yl)acetamido)benzamide]
IC50 (MCF-7): 7.7 µM | IC50 (HepG2): 4.5 µM | IC50 [1]: 19.9 µM | Cytotoxic activity against cancer HepG2 cell line more than against normal hepatic cells (primary rat hepatocytes): 4.5 fold | Accumulation of cells at G2/M compared to control cells (HepG2 cells [2]): 3.5 fold | Cell cycle distribution %G1 (HepG2 cells [2]): 37.66% and 37.66 ± 2.16 % | Cell cycle distribution %G2/M (HepG2 cells [2]): 34.14% and 34.14 ± 1.22 % | Cell cycle distribution %S (HepG2 cells [2]): 26.96% and 26.96 ± 1.55% | Cell cycle distribution %Sub-G1 (HepG2 cells [2]): 1.24% and 1.24 ± 0.17% | Apoptosis, Early (right bottom) (HepG2 cells [3]): 40.47% and 40.47 ± 2.55 % | Apoptosis, Late (right top) (HepG2 cells [3]): 0.35% and 0.35 ± 0.06% | Increase of apoptosis compared to untreated cells (HepG2 cells [3]): about five times | Necrosis (left top) (HepG2 cells [3]): 0.20 ± 0.04 | Viable (left bottom) (HepG2 cells [3]): 58.98 ± 2.64 | Increase in the level of caspase-3 compared to control cells (caspase-3): 2.5 fold | Protein expression (normalised to β-actin), Caspases-3 (caspase-3; control = 1.00): 2.51 ± 0.27 | Increase in the level of caspase-9 compared to control cells (caspase-9): 3.43 fold | Protein expression (normalised to β-actin), Caspases-9 (caspase-9; control = 1.00): 3.43 ± 0.49 | Increase in the BAX level compared to control cells (BAX): 2.6 fold | Protein expression (normalised to β-actin), BAX (BAX; 24 h, control = 1.00): 2.60 ± 0.20 | Decrease in the Bcl-2 level compared to control cells (Bcl-2): 2 fold | Protein expression (normalised to β-actin), Bcl-2 (Bcl-2; 24 h, control = 1.00): 0.52 ± 0.02 | Increase of BAX/Bcl-2 ratio compared to control cells (BAX/Bcl-2 ratio): 5 fold | Protein expression (normalised to β-actin), BAX/Bcl-2 ratio (BAX/Bcl-2 ratio; 24 h, control = 1.00): 5.03 ± 0.36

Source: PMC8344243, “Design, synthesis, docking, ADMET studies, and anticancer evaluation of new 3-methylquinoxaline derivatives as VEGFR-2 inhibitors and apoptosis inducers” (Journal of Enzyme Inhibition and Medicinal Chemistry, 2021)
